In data set [1] the test system is T.b. brucei. Details: method as in https://www.pathogenbox.org/. The settings on record: Table 1, kinetoplastid category; ref https://www.pathogenbox.org/; read-out: T. brucei brucei IC50 (μM) Pathogen Box; cited from earlier work.
Data set [2] concerns T.b. brucei (strain 427) bloodstream form parasites. The experiment in a line: Trypanosoma brucei assay, dose–response (this study). In kind it is cell-based. The settings on record: for IC50: Trypanosoma brucei; for Selectivity index: calculated as IC50(HeLa)/IC50(T.bb).
The test system is the same in data set [3]. The experiment in a line: T.b. brucei single concentration screen (10 μM). The settings on record: for viability at 10 µM: Trypanosoma brucei, read-out: T.b.brucei % viability (10 µM); for T.b.brucei % viability (10 µM): single concentration 10 µM, % parasite viability relative to non-treated parasites.
Data set [4] has as its system HeLa cells. The experiment in a line: HeLa cell assay (cytotoxicity). The following applies: Homo sapiens, HeLa cells, 48 hours, resazurin, read-out: HeLa IC50. The data set is classed as cell-based. The method, then:
HeLa cells were cultured in DMEM medium supplemented with 10% fetal bovine serum and antibiotics (penicillin/streptomycin/amphotericin B) at 37 °C in a 5% CO2 incubator. On the day prior to compound addition, cells were plated in 96-well plates at 2 × 10^4 cells per well. Compounds were added to the cells in 3-fold serial dilutions and incubation at 37 °C in a 5% CO2 incubator continued for 48 hours. Twenty μl resazurin reagent (0.5 mM resazurin in phosphate-buffered saline) was added to each well and, after a 2-hour incubation, fluorescence (Exc560/Em590) was measured in a plate reader. Percentage cell viability in drug-treated wells was calculated from the fluorescent readings obtained relative to those in wells containing control, untreated cells. Plots of % cell viability vs. log[compound] were used to determine IC50 values by non-linear regression analysis using GraphPad Prism.
On the technique in general: Alamar Blue is a resazurin reagent that responds to reducing activity.

Setting [5] is: Table 1, kinetoplastid category, 48 hours at 37 °C, resazurin, read-out: T. brucei brucei IC50 (μM) This study.
The mark [6] stands for this setting: Table 2, remaining Pathogen Box, 48 hours at 37 °C, resazurin, read-out: T. brucei brucei IC50 (μM) This study.

Structures are written as SMILES. Where two headings read alike, the source gives them in different places.

As to `COc1ccc(C(=N)N)cc1-c1cn(-c2ccc(C(=N)N)cc2)nn1` [Compound 12, COc1ccc(cc1c2cn(nn2)c3ccc(cc3)C(=N)N)C(=N)N], the IC50 in data set [1] is 0.25 µM; in data set [2] (setting [5]) it was 0.54 µM; in data set [4] (Table 1), above 25000 nM. For the same molecule, the viability at 10 µM in data set [3] is 9%.
As for `O=C(Nc1ccc2c(c1)B(O)OC2)c1ccccc1C(F)(F)F` [Compound 3, OB1OCc2ccc(NC(=O)c3ccccc3C(F)(F)F)cc12], the values for the IC50 in data set [1], in data set [2] (setting [5]) and in data set [4] (Table 1) were 0.15 µM, 0.14 µM and above 25000 nM, respectively. Besides, the viability at 10 µM in data set [3] worked out at 0%.
For the molecule `O=C(NCc1nnc2n1CCCCC2)c1ccc(-c2ccc(F)cc2)o1` [Compound 8, Fc1ccc(cc1)c2oc(cc2)C(=O)NCc3nnc4CCCCCn34], the IC50 in data set [1] was 0.1 µM; in data set [2] (setting [5]), 0.11 µM; in data set [4] (Table 1), above 25000 nM. In addition, the viability at 10 µM in data set [3] came out at 1.3%.
On to `COc1ccc(S(=O)(=O)Nc2ccc(CN3CCN(C(=O)c4cccc(C#N)c4)CC3)cc2)cc1` [Compound 18, O=C(N1CCN(CC2=CC=C(NS(=O)(C3=CC=C(OC)C=C3)=O)C=C2)CC1)C4=CC(C#N)=CC=C4], for which the IC50 in data set [1] was 0.5 µM; in data set [2] (setting [5]), 0.44 µM; in data set [4] (Table 1) it was above 25000 nM. The viability at 10 µM in data set [3] amounted to 6.5%.
Consider `N=C(N)c1ccc(-c2cc(-c3ccccc3)on2)cc1` [Compound 26, NC(=N)c1ccc(cc1)c2cc(on2)c3ccccc3], for which the IC50 in data set [1] was 4.06 µM. Also, in data set [3], the viability at 10 µM was 14% and the “T.b.brucei % viability (10 µM)” value is on record as “did not sufficiently reduce cell viability”.
With `CCc1ccccc1-n1c(C)cn2c3c(=O)n(C(C(=O)OC)C(C)C)c(=O)n(C)c3nc12` (stereo not drawn) [Compound 4, CCc1ccccc1n2c(C)cn3c4C(=O)N(C(C(C)C)C(=O)OC)C(=O)N(C)c4nc23], the figures for the IC50 in data set [1], in data set [2] (setting [5]) and in data set [4] (Table 1) were below 0.13 µM, 0.03 µM and above 25000 nM, respectively. Also, the viability at 10 µM in data set [3] was 0%.
In the case of `COc1ccc(C2=NN(C3CCCCCC3)C(=O)C2(C)C)cc1OCCCCOc1ccc(-c2nn[nH]n2)cc1` [Compound 25, COC1=C(OCCCCOC2=CC=C(C3=NNN=N3)C=C2)C=C(C4=NN(C5CCCCCC5)C(C4(C)C)=O)C=C1], the IC50 in data set [1] was 0.79 µM; in data set [2] (setting [5]), 1.7 µM; in data set [4] (Table 1), above 25000 nM. Also, the viability at 10 µM in data set [3] was 8.5%.
Consider `N=C(N)Nc1ccc(-c2ccc(-c3ccc(NC(=N)N)cc3Cl)o2)c(Cl)c1` [Compound 32, NC(=N)Nc1ccc(c(Cl)c1)c2oc(cc2)c3ccc(NC(=N)N)cc3Cl], for which the IC50 in data set [1] is 1.03 µM. Moreover, in data set [3], the viability at 10 µM came out at 17% and the “T.b.brucei % viability (10 µM)” value is given as “did not sufficiently reduce cell viability”.
For `O=C(Nc1ccc(F)c(-c2nc3cc(-c4ccccc4)cnc3[nH]2)c1)N1CCCC1` [Compound 2, FC1=C(C=C(NC(=O)N2CCCC2)C=C1)C1=NC2=CC(=CN=C2N1)C1=CC=CC=C1], the IC50 is below 0.13 µM in data set [1], 0.049 µM in data set [2] (setting [5]) and 800 nM in data set [4] (Table 1). The viability at 10 µM in data set [3] stood at 2%.
Consider `CO[C@@H](C(=O)N1Cc2[nH]nc(NC(=O)c3ccc(N4CCN(C)CC4)cc3)c2C1)c1ccccc1` [Compound 21, CO[C@@H](C(=O)N1Cc2[nH]nc(NC(=O)c3ccc(cc3)N4CCN(C)CC4)c2C1)c5ccccc5], for which the IC50 was 1.02 µM in data set [1], 0.3 µM in data set [2] (setting [5]) and above 25000 nM in data set [4] (Table 1). Besides, the viability at 10 µM in data set [3] came to 4.5%.
For the molecule `O=C(NCCc1ccn(-c2ccccc2)n1)C1CCCCC1` [Compound 13, O=C(NCCc1ccn(n1)c2ccccc2)C3CCCCC3], the IC50 in data set [1] is 0.15 µM; in data set [2] (setting [5]) it was 0.21 µM; in data set [4] (Table 1) it was above 25000 nM. Moreover, in data set [3], the viability at 10 µM amounted to 2%.
As to `Cc1ncc(-c2ccnc(Nc3ccc(S(C)(=O)=O)cc3)n2)n1C(C)C` [Compound 6, CC(C)n1c(C)ncc1c2ccnc(Nc3ccc(cc3)S(=O)(=O)C)n2], the IC50 in data set [1] was 0.26 µM; in data set [2] (setting [5]), 0.084 µM; in data set [4] (Table 1), 1200 nM. Moreover, the viability at 10 µM in data set [3] turned out to be 2.2%.
For `CN1CCN(S(=O)(=O)c2ccc(-c3ccc4c(Nc5ncc(Cl)cn5)ccnc4c3)cc2)CC1` [Compound 31, CN1CCN(CC1)S(=O)(=O)c2ccc(cc2)c3ccc4c(Nc5ncc(Cl)cn5)ccnc4c3], the results for the IC50 in data set [1], in data set [2] (setting [5]) and in data set [4] (Table 1) were 3.78 µM, 2.2 µM and above 25000 nM, respectively. The viability at 10 µM in data set [3] came out at 6.4%.
As for `CNC(=O)c1nn(C)c2c1C(C)(C)Cc1cnc(Nc3ccc(N4CCN(C)CC4)cc3)nc1-2` [Compound 7, CNC(=O)c1nn(C)c2c3nc(Nc4ccc(cc4)N5CCN(C)CC5)ncc3CC(C)(C)c12], the IC50 in data set [1] is below 0.13 µM; in data set [2] (setting [5]), 0.048 µM; in data set [4] (Table 1) it was 4000 nM. For the same molecule, the viability at 10 µM in data set [3] stood at 0.62%.
Regarding `Cc1nn2c(O)c3c(nc2c1-c1ccc(F)cc1)CCCC3` [Compound 28, Cc1nn2c(O)c3CCCCc3nc2c1c4ccc(F)cc4], the values for the IC50 in data set [1], in data set [2] (setting [5]) and in data set [4] (Table 1) were 1.94 µM, 4.6 µM and above 25000 nM, respectively. In addition, in data set [3], the viability at 10 µM came to 12%.
`NCCN(C(=O)c1ccc(Cl)cc1Cl)c1ccc(OCc2ccc(Cl)cc2)cc1` [Compound 9, NCCN(C(=O)c1ccc(Cl)cc1Cl)c2ccc(OCc3ccc(Cl)cc3)cc2]: the IC50 in data set [1] is below 0.13 µM; in data set [2] (setting [5]) it was 0.49 µM; in data set [4] (Table 1), 7500 nM. In data set [3], the viability at 10 µM turned out to be 4%.
For `N=C(N)Nc1ccc(-c2ccc(-c3ccc(N=C(N)N)c(Cl)c3)o2)cc1Cl` [Compound 16, NC(=N)Nc1ccc(cc1Cl)c2oc(cc2)c3ccc(N=C(N)N)c(Cl)c3], the values for the IC50 in data set [1], in data set [2] (setting [5]) and in data set [4] (Table 1) were 0.6 µM, 0.65 µM and 17000 nM, respectively. In data set [3], the viability at 10 µM is 1.2%.
`CCN(CC)S(=O)(=O)c1ccc(C(=O)Nc2cc(C)nn2-c2nc(C)c(C)c(=O)[nH]2)cc1` [Compound 27, CC1=C(C)C(NC(N2N=C(C)C=C2NC(C3=CC=C(S(=O)(N(CC)CC)=O)C=C3)=O)=N1)=O]: in data set [1], the IC50 was 5.3 µM. Further, in data set [3], the viability at 10 µM came to 58% and the “T.b.brucei % viability (10 µM)” value is “did not sufficiently reduce cell viability”.
Consider `COc1ccc(OC)c(NCc2ccc3nc(N)nc(N)c3c2Cl)c1` [Compound 48, COc1ccc(OC)c(NCc2ccc3nc(N)nc(N)c3c2Cl)c1], for which the IC50 was 1.2 µM in data set [2] (setting [6]) and above 25000 nM in data set [4] (Table 2). Further, the Selectivity index in data set [2] is above 21. Besides, the viability at 10 µM in data set [3] turned out to be 12%.
In the case of `Cc1ccc2c(c1C)NC(=O)C21NN=C(c2ccccc2)S1` (stereo not drawn) [Compound 54, Cc1ccc2c(NC(=O)C23NN=C(S3)c4ccccc4)c1C], in data set [2], the “T.b. brucei inhibition in words, this study” value was “sub-micromolar range”. Further, the IC50 in data set [2] (setting [6]) is 1 µM; in data set [2] (pIC50 values (M), read-out: pIC50 (T.b. brucei), this study (converted)), below 1 µM; in data set [4] (Table 2), 6600 nM. In addition, in data set [2], the Selectivity index is 6.6. In addition, the viability at 10 µM in data set [3] came to 3%.
With `COc1cccc(-c2nc3c(N4CCCC4)cccc3n2CC2CCCN2)n1` (stereo not drawn) [Compound 44, COc1cccc(n1)c2nc3c(cccc3n2CC4CCCN4)N5CCCC5], the IC50 came out at 4.2 µM in data set [2] (setting [6]) and 22000 nM in data set [4] (Table 2). The Selectivity index in data set [2] is 5.2. Further, in data set [3], the viability at 10 µM was 4%.
In the case of `Cc1ccc2[nH]c(C3CCCNC3)c(-c3ccncc3)c2c1` (stereo not drawn) [Compound 36, Cc1ccc2[nH]c(C3CCCNC3)c(c4ccncc4)c2c1], the IC50 was 2.2 µM in data set [2] (setting [6]) and 8900 nM in data set [4] (Table 2). Besides, the Selectivity index in data set [2] is recorded as 4.0. Also, the viability at 10 µM in data set [3] came to 1%.

Usually viability stands for a read-out of living cells in per cent, often relative to untreated cells.

(Values after publication PMC6301270 (MedChemComm, 2018).)
